Laboratory results taken from patent publication US6858638B2, “Substituted indazoles, compositions containing them, method of production and use” (Aventis Pharma S.A., priority 2002, dated 2005).

Columns and labels:
[1] = target: T1, human FAK (Homo sapiens, UniProt Q05397); test: FAK autophosphorylation inhibition, time resolved fluorescence (HTRF) assay; assay type: biochemical; settings: for inhibition at 10 µM: read-out: FAK % inhib at 10 μM
T1 construct: The complete cDNA of human FAK; made in house; host or cells: baculovirus expression system (vector pFastBac HTc)
T1 sequence (Q05397 whole entry): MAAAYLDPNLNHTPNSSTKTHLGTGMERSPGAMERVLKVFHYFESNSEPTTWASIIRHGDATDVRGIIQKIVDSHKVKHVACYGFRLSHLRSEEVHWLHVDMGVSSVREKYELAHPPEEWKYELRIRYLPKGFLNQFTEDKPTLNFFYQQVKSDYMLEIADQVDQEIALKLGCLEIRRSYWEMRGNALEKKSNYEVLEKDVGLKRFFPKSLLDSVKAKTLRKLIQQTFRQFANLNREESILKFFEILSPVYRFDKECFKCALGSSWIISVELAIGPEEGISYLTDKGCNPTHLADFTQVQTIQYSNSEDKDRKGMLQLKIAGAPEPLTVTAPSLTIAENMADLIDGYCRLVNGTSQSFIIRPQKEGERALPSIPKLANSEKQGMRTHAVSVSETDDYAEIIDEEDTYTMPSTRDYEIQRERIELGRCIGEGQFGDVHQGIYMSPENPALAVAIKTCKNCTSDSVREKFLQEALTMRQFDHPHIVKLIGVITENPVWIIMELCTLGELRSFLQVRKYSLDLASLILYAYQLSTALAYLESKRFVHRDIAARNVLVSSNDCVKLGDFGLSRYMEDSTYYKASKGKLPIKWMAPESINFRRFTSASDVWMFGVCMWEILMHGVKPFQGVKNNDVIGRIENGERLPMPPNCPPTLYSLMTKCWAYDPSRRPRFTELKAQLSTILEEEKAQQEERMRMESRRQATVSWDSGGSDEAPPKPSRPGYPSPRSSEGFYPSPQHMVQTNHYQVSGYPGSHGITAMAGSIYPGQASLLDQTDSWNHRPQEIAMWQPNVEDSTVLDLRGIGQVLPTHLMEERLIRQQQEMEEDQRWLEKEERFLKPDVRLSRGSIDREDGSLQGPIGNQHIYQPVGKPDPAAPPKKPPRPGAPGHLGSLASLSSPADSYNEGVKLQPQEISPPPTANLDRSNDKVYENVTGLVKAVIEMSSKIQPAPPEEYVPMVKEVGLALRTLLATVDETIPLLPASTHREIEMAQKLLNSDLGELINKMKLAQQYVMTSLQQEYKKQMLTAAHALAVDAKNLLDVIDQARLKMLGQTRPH
Outline: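 His-tagged full-length human FAK from baculovirus (6.6 µg/ml) self-phosphorylates with 15 µM ATP in HEPES pH 7.2, MgCl2, vanadate, 1 h at 37 °C. HTRF detection (Eu-anti-phosphotyrosine / XL665-anti-His), 665/620 nm ratio; % inhibition vs untreated control, duplicate mean.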

[2] = target: T2, human KDR enzyme (Homo sapiens, UniProt P35968); test: KDR substrate (PLCγ) phosphorylation, scintillation assay; assay type: biochemical; settings: 10 μM; for inhibition at 10 µM: read-out: KDR % inhib at 10 μM
T2 construct: The cytoplasmic domain of the human KDR enzyme; GST; made in house; host or cells: SF21 insect cells (baculovirus)
T2 sequence (P35968 786-1356 limits assumed): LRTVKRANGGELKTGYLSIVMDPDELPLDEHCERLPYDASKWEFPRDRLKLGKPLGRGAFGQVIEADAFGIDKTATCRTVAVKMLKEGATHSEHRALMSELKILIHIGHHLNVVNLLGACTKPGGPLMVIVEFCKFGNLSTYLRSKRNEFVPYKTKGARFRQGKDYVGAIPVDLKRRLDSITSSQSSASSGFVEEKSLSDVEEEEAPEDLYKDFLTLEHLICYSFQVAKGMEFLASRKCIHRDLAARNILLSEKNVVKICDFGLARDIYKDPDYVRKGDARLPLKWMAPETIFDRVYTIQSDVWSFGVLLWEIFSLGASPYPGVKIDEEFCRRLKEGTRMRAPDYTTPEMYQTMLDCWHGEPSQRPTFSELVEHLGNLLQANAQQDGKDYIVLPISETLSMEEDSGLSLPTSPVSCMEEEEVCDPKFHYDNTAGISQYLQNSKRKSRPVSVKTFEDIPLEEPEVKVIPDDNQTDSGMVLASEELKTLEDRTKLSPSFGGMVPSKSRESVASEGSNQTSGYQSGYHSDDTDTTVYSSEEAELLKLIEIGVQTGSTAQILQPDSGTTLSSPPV
Outline: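 GST-fused human KDR cytoplasmic domain from SF21 cells (about 60% pure, 100 ng) phosphorylated 2 μg of GST-PLCγ SH2-SH3 fragment. The trigger solution held γ33P-ATP with 2 μM cold ATP, in MOPS buffer pH 7.2 with Mg2+, Mn2+, vanadate and NaF. Reactions ran 1 h at 37 °C, were stopped with EDTA and counted by scintillation; results are % inhibition versus the no-compound control.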

[3] = target: T3, Aurora2 kinase (Homo sapiens, UniProt O14965); test: Aurora2 kinase radioactivity scintillation assay using nickel chelate (NuMA substrate); assay type: biochemical; settings: 10 μM; for inhibition at 10 µM: read-out: Aurora2 % inhib at 10 μM
T3 construct: A complete recombinant Aurora2 enzyme; His tag (N); made in house; host or cells: E. coli
T3 sequence (O14965 1-403): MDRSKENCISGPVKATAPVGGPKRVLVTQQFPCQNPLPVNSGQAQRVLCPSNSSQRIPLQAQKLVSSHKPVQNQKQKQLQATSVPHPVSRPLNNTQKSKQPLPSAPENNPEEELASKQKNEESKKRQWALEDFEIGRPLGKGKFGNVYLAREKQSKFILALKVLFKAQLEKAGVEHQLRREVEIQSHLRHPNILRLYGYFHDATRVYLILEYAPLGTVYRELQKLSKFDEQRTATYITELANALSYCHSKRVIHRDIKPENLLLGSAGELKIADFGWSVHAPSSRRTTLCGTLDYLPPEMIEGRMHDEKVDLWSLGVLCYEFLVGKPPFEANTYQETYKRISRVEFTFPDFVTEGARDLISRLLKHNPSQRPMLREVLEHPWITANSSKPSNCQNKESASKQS
Outline: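 His-tagged full-length Aurora2 (0.02 μM, E. coli) phosphorylating His-tagged NuMA C-terminal fragment (0.5 μM) with 1 μM ATP plus [33P]-ATP, 30 min at 37 °C, pH 7.5 Tris buffer with MgCl2. Nickel-chelate scintillation read; percent inhibition versus no-compound control.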

[4] = system: c-Src protein; test: Src kinase phosphorylation of biotinylated cdc2 substrate, fluorescence (DELFIA); assay type: biochemical, human
Protocol: The inhibition of the Src kinase is evaluated by measuring the phosphorylation of the biotinylated cdc2 substrate (Pierce) detected by fluorescence (DELFIA) using an antiphosphotyrosine antibody labeled with Europium, in 96-well Wallac plates. The c-Src protein used is a recombinant human protein produced in Baculovirus, comprising the SH3 and SH2 and the catalytic domains. The enzyme, the substrate and the various concentrations of test compounds are placed in the well in a 50 mM Tris buffer containing 10 mM MgCl2. The reaction is initiated by adding 10 μM of ATP. After incubation for 60 minutes at 30° C., the reaction is stopped by adding 75 mM EDTA. 50 μl are taken from each well and transferred into a plate coated with streptavidin. After incubation for 30 minutes at 25° C., the wells are washed with a washing buffer (Wallac) and then the antiphosphotyrosine antibody (PY20-Europium [Perkin Elmer]) is added in a volume of 75 μl. The plate is incubated for 30 minutes at 25° C. and then an “Enhancer” solution (Wallac) is added before reading the fluorescence using a fluorimeter (Perkin Elmer). The background noise is evaluated in triplicate in wells containing the substrate and the antibody in the absence of enzyme. The activity of the enzyme is measured (in triplicate) in the wells containing all the reagents in the absence of compound. The inhibition of the Src activity is expressed as percentage inhibition of the activity of the control determined in the absence of compound. The compound PP2 (Calbiochem) is included at various concentrations in each experiment as an inhibition control.

[5] = target: T4, human IGF1R cytoplasmic domain (Homo sapiens, UniProt P08069); test: IGF1R autophosphorylation inhibition, time resolved fluorescence (HTRF) assay; assay type: biochemical; settings: 10 μM
T4 construct: The human IGF1R cytoplasmic domain was cloned; made in house; host or cells: SF21 insect cells (baculovirus)
T4 sequence (P08069 960-1367 limits assumed): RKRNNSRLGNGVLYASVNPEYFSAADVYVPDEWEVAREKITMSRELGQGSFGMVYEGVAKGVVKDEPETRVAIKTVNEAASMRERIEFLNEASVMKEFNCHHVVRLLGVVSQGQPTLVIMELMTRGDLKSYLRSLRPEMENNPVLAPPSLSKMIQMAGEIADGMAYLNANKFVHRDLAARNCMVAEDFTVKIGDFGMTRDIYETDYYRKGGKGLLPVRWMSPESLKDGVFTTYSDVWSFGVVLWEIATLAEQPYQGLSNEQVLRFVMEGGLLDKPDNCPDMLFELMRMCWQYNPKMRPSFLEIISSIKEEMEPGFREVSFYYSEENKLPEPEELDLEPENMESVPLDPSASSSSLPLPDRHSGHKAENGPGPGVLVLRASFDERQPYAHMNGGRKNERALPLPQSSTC
Outline: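 GST-tagged human IGF1R cytoplasmic domain from SF21 cells incubated with compound in 50 mM Hepes pH 7.5, 5 mM MnCl2, 50 mM NaCl, […] ATP. Autophosphorylation detected by HTRF (Eu-K anti-phosphotyrosine, XL665 anti-GST) after EDTA/KF stop; percentage inhibition versus no-compound control.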

[6] = system: NCI-H460 cells; settings: concentration of 100 μM; cited from earlier work
[7] = system: HCT-15 cells; settings: concentration of 100 μM; cited from earlier work
[8] = 10 μM (values without asterisk)

Row | SMILES | inhibition at 10 µM [1, 8] | inhibition at 10 µM [2] | inhibition at 10 µM [3] | SRC % inhib at 10 μM [4] | melting point | FAK % inhib at 10 μM ([1]; 10 μM (values without asterisk), 10 µM) | KDR % inhib at 10 μM [2] | Aurora2 % inhib at 10 μM [3] | IGF1R % inhib at 10 μM [5] | inhibition at 30 µM ([1]; 30 μM (values marked *), read-out: FAK % inhib at 30* μM) | growth inhibition [6] | growth inhibition [7]
1 | CS(=O)(=O)c1ccccc1S(=O)(=O)Nc1ccc2[nH]nc(-c3ccc([N+](=O)[O-])cc3)c2c1 [Example 66, N-[3-(4-Nitrophenyl)-1H-indazol-5-yl]-2-methylsulfonylbenzenesulfonamide] | 75% | 20% | 100% | 90% | – | – | – | – | – | – | – | –
2 | CS(=O)(=O)c1ccccc1S(=O)(=O)Nc1ccc2[nH]nc(-c3ccc4ccccc4c3)c2c1 [Example 73, 2-Methylsulfonyl-N-(3-naphthalen-2-yl-1H-indazol-5-yl)-benzenesulfonamide] | 87% | 38% | 100% | 40% | 221 °C | – | – | – | – | – | – | –
3 | CS(=O)(=O)c1ccccc1S(=O)(=O)Nc1ccc2[nH]nc(-c3cccs3)c2c1 [Example 50, 2-Methylsulfonyl-N-(3-thiophen-2-yl-1H-indazol-5-yl)benzenesulfonamide] | – | – | – | – | 246 °C | 99% | 80% | 91% | 63% | – | – | –
4 | Cc1n[nH]c2ccc(NS(=O)(=O)c3ccc(Cl)c(Cl)c3)cc12 [Example 25, 3,4-Dichloro-N-(3-methyl-1H-indazol-5-yl)benzenesulfonamide] | – | 11% | 50% | – | 184 °C | – | – | – | – | 38% | – | –
5 | COc1cc(S(=O)(=O)Nc2ccc3[nH]ncc3c2)cc(OC)c1OC [N-(1H-indazol-5-yl)-3,4,5-trimethoxybenzenesulfonamide] | – | – | – | – | – | – | – | – | – | – | 18.5% | 47.6%
6 | CCCCN(CCCC)c1cccc2c(S(=O)(=O)Nc3ccc4[nH]nc(-c5ccccc5)c4c3)cccc12 [Example 147, 5-Dibutylamino-N-(3-phenyl-1H-indazol-5-yl)naphthalene-1-sulfonamide] | 0% | 96% | 86% | 88% | – | – | – | – | – | – | – | –
7 | CS(=O)(=O)c1ccccc1S(=O)(=O)Nc1ccc2[nH]nc(CCc3ccc(Cl)cc3)c2c1 [Example 77, N-{3-[2-(4-Chlorophenyl)ethyl]-1H-indazol-5-yl}-2-methylsulfonylbenzenesulfonamide] | 73% | 36% | 93% | – | 215 °C | – | – | – | – | – | – | –
8 | CS(=O)(=O)c1ccccc1S(=O)(=O)Nc1ccc2[nH]nc(Br)c2c1 [Example 38, N-(3-Bromo-1H-indazol-5-yl)-2-methylsulfonylbenzenesulfonamide] | 69% | 3% | 86% | 56% | – | – | – | – | – | – | – | –
9 | CS(=O)(=O)c1ccccc1S(=O)(=O)Nc1ccc2[nH]nc(-c3csc4ccccc34)c2c1 [Example 64, N-(3-Benzo[b]thiophen-3-yl-1H-indazol-5-yl)-2-methylsulfonylbenzenesulfonamide] | 30% | 41% | 72% | 86% | 235 °C | – | – | – | – | – | – | –
10 | CS(=O)(=O)c1ccccc1S(=O)(=O)Nc1ccc2[nH]nc(-c3cccc4ccccc34)c2c1 [Example 72, 2-Methylsulfonyl-N-(3-naphthalen-1-yl-1H-indazol-5-yl)-benzenesulfonamide] | 21% | 41% | 78% | 77% | 186 °C | – | – | – | – | – | – | –
11 | COC(=O)c1ccc(-c2n[nH]c3ccc(NS(=O)(=O)c4ccccc4S(C)(=O)=O)cc23)cc1 [Example 68, Methyl 4-[5-(2-methylsulfonylbenzenesulfonamino)-1H-indazol-3-yl]benzoate] | 91% | 85% | 95% | – | 244 °C | – | – | – | – | – | – | –

More lines, main results first:

Row | inhibition at 10 µM [1, 8] | inhibition at 10 µM [2] | inhibition at 10 µM [3] | SRC % inhib at 10 μM [4] | melting point | FAK % inhib at 10 μM ([1]; 10 μM (values without asterisk), 10 µM) | KDR % inhib at 10 μM [2] | Aurora2 % inhib at 10 μM [3] | IGF1R % inhib at 10 μM [5] | inhibition at 30 µM ([1]; 30 μM (values marked *), read-out: FAK % inhib at 30* μM) | SMILES | growth inhibition [6] | growth inhibition [7]
12 | 53% | 91% | 94% | 78% | – | – | – | – | – | – | Nc1cccc(S(=O)(=O)Nc2ccc3[nH]nc(-c4ccccc4)c3c2)c1 [Example 98, 3-Amino-N-(3-phenyl-1H-indazol-5-yl)benzenesulfonamide] | – | –
13 | 50% | 96% | 93% | 76% | 228 °C | – | – | – | – | – | O=[N+]([O-])c1cccc(S(=O)(=O)Nc2ccc3[nH]nc(-c4ccccc4)c3c2)c1 [Example 97, 3-Nitro-N-(3-phenyl-1H-indazol-5-yl)benzenesulfonamide] | – | –
14 | 59% | 98% | 85% | 62% | – | – | – | – | – | – | O=S(=O)(Nc1ccc2[nH]nc(-c3ccccc3)c2c1)c1cccc(Cl)c1 [Example 136, 3-Chloro-N-(3-phenyl-1H-indazol-5-yl)-benzenesulfonamide] | – | –
15 | 26% | 94% | 69% | 18% | – | – | – | – | – | – | O=S(=O)(Nc1ccc2[nH]nc(-c3ccccc3)c2c1)c1cccc(C(F)(F)F)c1 [Example 130, 3-Trifluoromethyl-N-(3-phenyl-1H-indazol-5-yl)-benzenesulfonamide] | – | –
16 | 38% | 97% | 80% | 43% | – | – | – | – | – | – | O=S(=O)(Nc1ccc2[nH]nc(-c3ccccc3)c2c1)c1cccc(Br)c1 [Example 141, 3-Bromo-N-(3-phenyl-1H-indazol-5-yl)-benzenesulfonamide] | – | –
17 | 53% | 96% | 96% | 51% | – | – | – | – | – | – | O=S(=O)(Nc1ccc2[nH]nc(-c3ccccc3)c2c1)c1ccccc1Br [Example 139, 2-Bromo-N-(3-phenyl-1H-indazol-5-yl)-benzenesulfonamide] | – | –
18 | 67% | 91% | 100% | 83% | 225 °C | – | – | – | – | – | O=S(=O)(Nc1ccc2[nH]nc(-c3ccccc3)c2c1)c1cccnc1 [Example 96, N-(3-Phenyl-1H-indazol-5-yl)pyridine-3-sulfonamide] | – | –
19 | 53% | 96% | 80% | 59% | – | – | – | – | – | – | O=S(=O)(Nc1ccc2[nH]nc(-c3ccccc3)c2c1)c1cc(Cl)cc(Cl)c1 [Example 137, 3,5-Dichloro-N-(3-phenyl-1H-indazol-5-yl)-benzenesulfonamide] | – | –
